Measured values taken from publication PMC8175350, “Drug repurposing screens identify chemical entities for the development of COVID-19 interventions” (Nature Communications, 2021).
Values joined by “and” are separate entries in the source; they are usually repeats but may differ in a detail not shown here. Equal entries are not always repeated. Where two headings read alike, the source gives them in different places.

Assays:
[1] = tested on: Calu-3 cells
[2] = tested on: SARS-CoV-2; assay: microbe, parasite or virus in culture; type: cell-based; details: for %infected: Calu-3, replicates n=1, n=2
[3] = tested on: HeLa-ACE2 cells; assay: cells; details: Homo sapiens, HeLa-ACE2, read-out: HeLa-ACE2 cell count EC50 GeoMean
[4] = tested on: Calu-3 cells; assay: cells; details: Homo sapiens
[5] = Uninfected HeLa-ACE2 24 h live/dead cytotoxicity counter screen; type: cell-based, human; details: human, uninfected HeLa-ACE2 cells, reconfirmed hits; read-out: HeLa-ACE2 Uninf. cells CC50
[6] = tested on: HeLa-ACE2 cells; assay: as above; type: cell-based, human; details: for cytotox: HeLa-ACE2
[7] = cited from earlier work
[8] = in vitro; details: human
[9] = tested on: HeLa-ACE2 cells; assay: Total cell count in the HeLa-ACE2 TOA assay; type: cell-based; details: Homo sapiens
Text: Supplement 41467_2021_23328_MOESM3_ESM.xlsx, sheet "Table S1" | column: HeLa-ACE2 TOA cell count

[10] = tested on: SARS-CoV-2; type: cell-based; details: 72 hpi
[11] = tested on: SARS-CoV-2; assay: microbe, parasite or virus in culture; type: cell-based; details: for TOA: HeLa-ACE2, replicates n=1
[12] = tested on: SARS-CoV-2; assay: microbe, parasite or virus in culture; type: cell-based; details: for %infected: HeLa-ACE2, replicates n=1, n=2

For `O=c1nc(NO)ccn1[C@@H]1O[C@H](CO)[C@@H](O)[C@H]1O` [N-hydroxycytidine], which “uninfected Calu-3 CC50” value [1] is on record?
The value was 29.85 ×÷ 1 (n=2) μM.

And the “Calu-3 uninfected cytotoxicity Sinf Average” value ([1]; human, 48 h)?
The value was -100%.

What about the “%infected” value ([2]; concentration log[M] -5.00096) of the same molecule?
Its value is -104.882% and -104.039% and -104.073% and -87.0522% and -95.3104% and -95.1991%.

And the “%infected” value ([2]; concentration log[M] -5.47808)?
The value was -102.424% and -94.8216% and -96.2613% and -79.6455% and -88.2245% and -78.3438%.

And the “%infected” value ([2]; concentration log[M] -6.08014)?
Its value is -48.1883% and -55.6504% and -62.6482% and -43.1506% and -54.549% and -44.7088%.

And the “%infected” value ([2]; concentration log[M] -6.42922)?
The value was -25.3967% and -10.7735% and -12.1745% and -21.3919% and -25.2933% and -26.102%.

And the “%infected” value ([2]; concentration log[M] -6.90623)?
Its value is 2.702% and -5.189% and -14.5454% and -5.7089% and 20.5633% and -23.5818%.

What about the “%infected” value ([2]; concentration log[M] -7.50836) of the same molecule?
The value was 7.0582% and -3.1% and 10.044% and -11.1778% and -10.264% and 16.3735%.

And the “%infected” value ([2]; concentration log[M] -7.85886)?
The value was -6.015% and 34.2889% and -1.001% and -2.481% and -24.9588% and 14.4808%.

What about the “%infected” value ([2]; concentration log[M] -8.33602) of the same molecule?
Its value is 34.4513% and -7.593% and -0.3699% and -1.01% and 8.564% and 15.1555%.

And the Emax ([2]; Severe acute respiratory syndrome coronavirus 2, Calu-3, 48 h, curve plateau at infinite concentration, read-out: Calu-3 CoV-2 Sinf Average)?
The Emax was 102%.

And the EC50 ([2]; Severe acute respiratory syndrome coronavirus 2, Calu-3, reconfirmed hits, read-out: Calu-3 SARS-CoV-2 EC50)?
Its EC50 is 0.803 µM.

What about the EC50 [3] of the same molecule?
The EC50 was over 9.59 µM.

And the Emax ([4]; Calu-3, 48 h, read-out: Calu-3 cell count Sinf Average)?
Its Emax is 100%.

And the EC50 ([4]; Calu-3, read-out: Calu-3 cell count EC50 GeoMean)?
Its EC50 is 2.3 µM.

And the CC50 at 24 h [5]?
Its CC50 at 24 h is over 37.5 µM.

And the cytotox ([6]; concentration log[M] -4.40012, replicates n=1, n=2)?
Its cytotox is -52.5894 and -47.3606 and -59.8571 and -45.9651 and -54.0657 and -40.7828.

And the cytotox ([6]; concentration log[M] -4.82681, replicates n=1, n=2)?
The cytotox was -38.4391 and -39.4796 and -38.1429 and -39.2039 and -43.0802 and -30.2326.

And the cytotox ([6]; concentration log[M] -5.30277, replicates n=1, n=2)?
Its cytotox is -30.8534 and -12.119 and -16 and -17.6118 and -29.9408 and -19.0017.

What about the cytotox ([6]; concentration log[M] -5.82681, replicates n=1, n=2) of the same molecule?
Its cytotox is -4.449 and -6.9145 and -4 and -19.1385 and -7.754 and 0.2836.

What about the cytotox ([6]; concentration log[M] -6.25414, replicates n=1, n=2) of the same molecule?
The cytotox was -16.849 and -13.6059 and -16.5714 and -13.1407 and -8.078 and -16.506.

What about the cytotox ([6]; concentration log[M] -6.73049, replicates n=1, n=2) of the same molecule?
Its cytotox is -10.2845 and 8.996 and -3.286 and -2.1265 and -9.908 and -9.472.

And the cytotox ([6]; concentration log[M] -7.25727, replicates n=1, n=2)?
The cytotox was 1.386 and -4.089 and -25.4286 and -12.8135 and -14.6473 and -10.7204.

What about the cytotox ([6]; concentration log[M] -7.68403, replicates n=1, n=2) of the same molecule?
Its cytotox is -8.534 and -5.279 and -6.286 and -2.672 and -11.8471 and 1.418.

What about the cytotox ([6]; concentration log[M] -8.16052, replicates n=1, n=2) of the same molecule?
Its cytotox is -5.325 and 4.535 and -3.571 and -9.869 and -22.4017 and -12.0817.

And the cytotox ([6]; concentration log[M] -8.59517, replicates)?
Its cytotox is -2.261 and -3.197 and -3.429 and -6.707 and -1.077 and -11.9682.

What about the “HeLa-ACE2 uninfected cytotoxicity Sinf Average” value ([6]; curve plateau at infinite concentration) of the same molecule?
Its value is -100%.

What about the “Approx. t1/2” value ([7]; NHP, ref [45]) of the same molecule?
The value was 1 h.

What about the Cmax ([7]; in vivo, po) of the same molecule?
Its Cmax is 3.3 µM.

And the CC50 at 48 h ([8]; Calu-3 Uninf. cells CC50 (µM))?
The CC50 at 48 h was over 29.9 µM.

What about the CC50 at 48 h ([8]; Calu-3 uninfected cytotoxicity CC50 GeoMean) of the same molecule?
Its CC50 at 48 h is 29.9 µM.

What about the Emax ([9]; HeLa-ACE2, 10 h, read-out: HeLa-ACE2 TOA cell count Sinf Average) of the same molecule?
Its Emax is 100%.

What about the EC50 ([9]; HeLa-ACE2, read-out: HeLa-ACE2 TOA cell count EC50 GeoMean) of the same molecule?
The EC50 was over 9.59 µM.

What about the “reduction in apical viral loads” value [10] of the same molecule?
Its value is over 1 log.

What about the TOA ([11]; concentration log[M] -5.01818) of the same molecule?
Its TOA is -88.6412 and -82.7703 and -80.6006.

And the TOA ([11]; concentration log[M] -5.54106)?
Its TOA is -32.1719 and -27.0134 and -25.6358.

What about the TOA ([11]; concentration log[M] -6.01818) of the same molecule?
Its TOA is -19.1217 and -14.6661 and -4.943.

And the TOA ([11]; concentration log[M] -6.42366)?
The TOA was 4.0678 and -1.902 and 3.9754.

What about the TOA ([11]; concentration log[M] -6.90066) of the same molecule?
The TOA was 9.161 and 4.654 and 6.517.

And the TOA ([11]; concentration log[M] -7.37799)?
The TOA was 8.185 and 12.3603 and -5.097.

And the TOA ([11]; concentration log[M] -7.85511)?
The TOA was -1.637 and 10.875 and -15.0843.

What about the TOA ([11]; concentration log[M] -8.34746) of the same molecule?
The TOA was 4.125 and 6.481 and 1.9398.

What about the Emax ([11]; Severe acute respiratory syndrome coronavirus 2, HeLa-ACE2, 10 h, curve plateau at infinite concentration, read-out: HeLa-ACE2 TOA CoV-2 Sinf Average) of the same molecule?
Its Emax is 100%.

What about the EC50 ([11]; Severe acute respiratory syndrome coronavirus 2, HeLa-ACE2, read-out: HeLa-ACE2 TOA CoV-2 EC50 GeoMean) of the same molecule?
Its EC50 is 4.06 µM.

And the “%infected” value ([12]; concentration log[M] -5.01818)?
Its value is -95.9068% and -95.703% and -94.602% and -97.3369% and -96.6026% and -97.2941%.

What about the “%infected” value ([12]; concentration log[M] -5.54106) of the same molecule?
The value was -65.3775% and -59.3515% and -63.9298% and -52.8807% and -12.9328% and -65.202%.

What about the “%infected” value ([12]; concentration log[M] -6.01818) of the same molecule?
Its value is -30.1084% and -28.1968% and -26.2247% and 6.562% and 13.7937% and -28.207%.

What about the “%infected” value ([12]; concentration log[M] -6.42366) of the same molecule?
Its value is -20.845% and -20.4031% and 6.3056% and 22.7531% and 23.3232% and -10.0334%.

What about the “%infected” value ([12]; concentration log[M] -6.90066) of the same molecule?
Its value is -9.321% and -9.37% and 63.7122% and 19.7824% and -5.072% and -8.1%.

What about the “%infected” value ([12]; concentration log[M] -7.37799) of the same molecule?
Its value is -5.474% and -4.047% and 10.6164% and 29.7413% and 17.9839% and -7.442%.

What about the “%infected” value ([12]; concentration log[M] -7.85511) of the same molecule?
The value was -5.151% and -0.8478% and 5.043% and 11.903% and -2.081% and 8.512%.

What about the “%infected” value ([12]; concentration log[M] -8.34746) of the same molecule?
Its value is 2.419% and 1.409% and -2.874% and 18.1053% and 10.6681% and -1.579%.

And the Emax ([12]; Severe acute respiratory syndrome coronavirus 2, HeLa-ACE2, 24 h, curve plateau at infinite concentration, read-out: HeLa-ACE2 CoV-2 Sinf Average)?
Its Emax is 100%.

What about the EC50 ([12]; Severe acute respiratory syndrome coronavirus 2, HeLa-ACE2, reconfirmed hits, read-out: HeLa-ACE2 SARS-CoV-2 EC50) of the same molecule?
The EC50 was 2.07 µM.
